# System: patients with rheumatoid arthritis
# Assay: Phase II clinical study in rheumatoid arthritis: effectiveness (symptoms, physical examination, comprehensive evaluation)
# Format: in vivo, human
# Design: ESR Reduced to norm., % of cases / CRP Reduced to Norm., % of cases / RF Reduced to norm., % of cases: concentration or dose not given beside the values
# Details: for AGS 50% increased, % of cases / AGS 50% increased, cases / CRP 50% reduced, % of cases / CRP 50% reduced, cases / CRP Reduced to Norm., % of cases / CRP Reduced to Norm., cases / ESR 50% reduced, % of cases / ESR 50% reduced, cases / ESR Reduced to norm., % of cases / ESR Reduced to norm., cases / ITJ 50% reduced, % of cases / ITJ 50% reduced, cases / ITJ Disappeared, % of cases / ITJ Disappeared, cases / MR 50% reduced, % of cases / MR 50% reduced, cases / MR Disappeared, % of cases / MR Disappeared, cases / NSJ 50% reduced, % of cases / NSJ 50% reduced, cases / NSJ Disappeared, % of cases / NSJ Disappeared, cases / RF 2 dilutions lower, % of cases / RF 2 dilutions lower, cases / RF Reduced to norm., cases: double blinded
# Method: It was a multiple-centered, randomized, parallel, positive controlled Phrase II clinical study.
# All clinical studies except the above mentioned 120 cases were conducted in a single-blind condition.
# 1) Age 18˜65, male or female who agreed to the investigational treatment for 12 weeks to 6 months. History of rheumatoid arthritis was within 3 years.
# 2) Documented Rheumatoid Arthritis based on a diagnostic criteria of 1987 Revised ARA Criteria for the Classification of Rheumatoid Arthritis
# 3) Diagnosis of a typical active stage of RA: A patient is said to be on an active stage of RA if he or she has satisfied at least 4 of the following 5 items.
# 2) Patient who quitted the treatment for the ineffectiveness 7 days after the start of administration was included in the efficacy analysis. Patient who quitted the treatment for the side effects was not included in the efficacy analysis but the safety analyses.
# 1) The placebo run-in period: Seven days before administration, the selected patients stopped using NSAIDs and took a placebo instead.
# 4) For the double-blinded study, patients in both groups would be given capsules and tablets in same shapes, odors and amount. Placebo of capsule or tablet were included. Neither doctors nor patients can tell the group of treatment from the other.
# 5) No analgesics, anti-inflammation drugs, immune regulatory agents or muscle relaxants were allowed during the period of study. Acetaminophen could be used when necessary. If a physical therapy was started before enrollment, it was allowed to be continued, yet, it should be taken all the way during the period of clinical study.
# 1) Pain at rest: patients were asked to scale the degree of pain with a ruler [drawing 1]
# 2) Morning stiffness: Patients were requested to make notes on duration of their morning joint stiffness, a time span from its appearance to recovery in minutes every morning. The doctors should evaluate their record sheets by questioning them. For example “Do you fell stiff in any of your joints? (today, these 2 days)” When get a “yes” in answer, then “when did you get up today?” and “when does the stiffness be gone?”
# 3) Swelling of joints: Take count of the index of joint swelling by summing up the degree number of each joint.
# 0=normal; 1=swelling soft tissues (synovium) without hydrarthrus; 2=swelling soft tissues (synovium) with hydrarthrus.
# 4) Tenderness of joints: Take count of the index of joint tenderness by summing up the degree number of each joint:
# 5) Grip strength: Fold the arm belt of a sphygmomanometer twice and seal it in a small cloth bag suitable for a hand to hold. Aerates the belt in pressure of 20 mm Hg. Patients were asked to grip the bag with their not braced left and right hand, the grip strength is the average pressures in mm Hg for three times.
# 6) Time consumed for a 15 meters' walk (Seconds): Time started from a calm standing to the final of 15 meters. The average of three times.
# 7) General joint function (criteria of ARA):
# 8) Self-scoring and physician's grading on disease conditions: Both patients and doctors were required to submit their score sheet every time on follow-up survey. The scoring was made upon following criteria:
# 9) Patient's general condition: condition on the physical strength, sleep and appetite.
# No effect: less than 30% improvement in symptoms and physical signs.
# Improved: About 50% improvement in symptoms and physical signs (including general conditions in physical strength, sleep and appetite).
# [1] = double blind, n = 60 per group, 4 weeks
# [2] = double blind, n = 60 per group, 8 weeks
# [3] = double blind, n = 60 per group, 12 weeks
smiles,measurement,setting,value
"CN(Cc1cnc2nc(N)nc(N)c2n1)c1ccc(C(=O)N[C@@H](CCC(=O)O)C(=O)O)cc1 [MTX, Methotrexate]",Effective rate,4 weeks,47.2%
same,"Overall effectiveness: Improved, % of patients",4 weeks,36.6%
same,"Overall effectiveness: Improved, number of patient",4 weeks,52
same,"Overall effectiveness: No effect, % of patients",4 weeks,52.8%
same,"Overall effectiveness: No effect, number of patient",4 weeks,75
same,"Overall effectiveness: Obv. improved, % of patients",4 weeks,10.6%
same,"Overall effectiveness: Obv. improved, number of patient",4 weeks,15
same,Effective rate,8 weeks,64.8%
same,"Overall effectiveness: Improved, % of patients",8 weeks,31.7%
same,"Overall effectiveness: Improved, number of patient",8 weeks,45
same,"Overall effectiveness: No effect, % of patients",8 weeks,35.2%
same,"Overall effectiveness: No effect, number of patient",8 weeks,50
same,"Overall effectiveness: Obv. improved, % of patients",8 weeks,33.1%
same,"Overall effectiveness: Obv. improved, number of patient",8 weeks,47
same,Effective rate,12 weeks,77.5%
same,"Overall effectiveness: Improved, % of patients",12 weeks,28.9%
same,"Overall effectiveness: Improved, number of patient",12 weeks,41
same,"Overall effectiveness: No effect, % of patients",12 weeks,22.5%
same,"Overall effectiveness: No effect, number of patient",12 weeks,32
same,"Overall effectiveness: Obv. improved, % of patients",12 weeks,48.6%
same,"Overall effectiveness: Obv. improved, number of patient",12 weeks,69
same,Effective rate,24 weeks,81.7%
same,"Overall effectiveness: Improved, % of patients",24 weeks,10.0%
same,"Overall effectiveness: Improved, number of patient",24 weeks,6
same,"Overall effectiveness: No effect, % of patients",24 weeks,18.3%
same,"Overall effectiveness: No effect, number of patient",24 weeks,11
same,"Overall effectiveness: Obv. improved, % of patients",24 weeks,71.7%
same,"Overall effectiveness: Obv. improved, number of patient",24 weeks,43
same,Changes in RA perimeters: GS-L,"double blind, 4 weeks, mean",12.70
same,Changes in RA perimeters: GS-R,"double blind, 4 weeks, mean",12.05
same,Changes in RA perimeters: ISJ,"double blind, 4 weeks, mean",2.47
same,Changes in RA perimeters: ITJ,"double blind, 4 weeks, mean",6.83
same,Changes in RA perimeters: MR,"double blind, 4 weeks, mean",33.52
same,Changes in RA perimeters: NSJ,"double blind, 4 weeks, mean",1.92
same,Changes in RA perimeters: NTJ,"double blind, 4 weeks, mean",3.53
same,Changes in RA perimeters: PR,"double blind, 4 weeks, mean",1.33
same,Changes in RA perimeters: GS-L,"double blind, 8 weeks, mean",17.55
same,Changes in RA perimeters: GS-R,"double blind, 8 weeks, mean",16.68
same,Changes in RA perimeters: ISJ,"double blind, 8 weeks, mean",4.03
same,Changes in RA perimeters: ITJ,"double blind, 8 weeks, mean",9.53
same,Changes in RA perimeters: MR,"double blind, 8 weeks, mean",41.03
same,Changes in RA perimeters: NSJ,"double blind, 8 weeks, mean",2.97
same,Changes in RA perimeters: NTJ,"double blind, 8 weeks, mean",5.52
same,Changes in RA perimeters: PR,"double blind, 8 weeks, mean",1.94
same,"Changes in RA perimeters: GS, L","double blind, 12 weeks, mean",22.03
same,"Changes in RA perimeters: GS, R","double blind, 12 weeks, mean",21.85
same,Changes in RA perimeters: ITJ,"double blind, 12 weeks, mean",11.59
same,Changes in RA perimeters: MR,"double blind, 12 weeks, mean",46.08
same,Changes in RA perimeters: NSJ,"double blind, 12 weeks, mean",3.92
same,Changes in RA perimeters: NTJ,"double blind, 12 weeks, mean",6.73
same,Changes in RA perimeters: PR,"double blind, 12 weeks, mean",2.60
same,Changes in RA perimeters: TSJ,"double blind, 12 weeks, mean",5.08
same,Effective rate,[1],43.3%
same,"Improved, % of patients",[1],(31.7%)
same,"Improved, number of patients",[1],19
same,"No effect, % of patients",[1],(56.7%)
same,"No effect, number of patients",[1],34
same,"Obviously improved, % of patients",[1],(11.7%)
same,"Obviously improved, number of patients",[1],7
same,Effective rate,[2],66.7%
same,"Improved, % of patients",[2],(31.7%)
same,"Improved, number of patients",[2],19
same,"No effect, % of patients",[2],(33.3%)
same,"No effect, number of patients",[2],20
same,"Obviously improved, % of patients",[2],(35.0%)
same,"Obviously improved, number of patients",[2],21
same,Effective rate,[3],75.0%
same,"Improved, % of patients",[3],(26.7%)
same,"Improved, number of patients",[3],16
same,"No effect, % of patients",[3],(25.0%)
same,"No effect, number of patients",[3],15
same,"Obviously improved, % of patients",[3],(48.33%)
same,"Obviously improved, number of patients",[3],29
same,"AGS 50% increased, % of cases",4 weeks,5.0%
same,"AGS 50% increased, cases",4 weeks,3
same,"CRP 50% reduced, % of cases",4 weeks,16.7%
same,"CRP 50% reduced, cases",4 weeks,10
same,"CRP Reduced to Norm., % of cases",4 weeks,6.7%
same,"CRP Reduced to Norm., cases",4 weeks,4
same,"ESR 50% reduced, % of cases",4 weeks,30.0%
same,"ESR 50% reduced, cases",4 weeks,18
same,"ESR Reduced to norm., % of cases",4 weeks,26.7%
same,"ESR Reduced to norm., cases",4 weeks,16
same,"ITJ 50% reduced, % of cases",4 weeks,31.7%
same,"ITJ 50% reduced, cases",4 weeks,19
same,"ITJ Disappeared, % of cases",4 weeks,3.3%
same,"ITJ Disappeared, cases",4 weeks,2
same,"MR 50% reduced, % of cases",4 weeks,38.3%
same,"MR 50% reduced, cases",4 weeks,23
same,"MR Disappeared, % of cases",4 weeks,25.0%
same,"MR Disappeared, cases",4 weeks,15
same,"NSJ 50% reduced, % of cases",4 weeks,40.0%
same,"NSJ 50% reduced, cases",4 weeks,24
same,"NSJ Disappeared, % of cases",4 weeks,15.0%
same,"NSJ Disappeared, cases",4 weeks,9
same,"RF 2 dilutions lower, % of cases",4 weeks,13.3%
same,"RF 2 dilutions lower, cases",4 weeks,8
same,"RF Reduced to norm., cases",4 weeks,0
same,"AGS 50% increased, % of cases",8 weeks,10.0%
same,"AGS 50% increased, cases",8 weeks,6
same,"CRP 50% reduced, % of cases",8 weeks,26.7%
same,"CRP 50% reduced, cases",8 weeks,16
same,"CRP Reduced to Norm., % of cases",8 weeks,25.0%
same,"CRP Reduced to Norm., cases",8 weeks,15
same,"ESR 50% reduced, % of cases",8 weeks,41.7%
same,"ESR 50% reduced, cases",8 weeks,25
same,"ESR Reduced to norm., % of cases",8 weeks,31.7%
same,"ESR Reduced to norm., cases",8 weeks,19
same,"ITJ 50% reduced, % of cases",8 weeks,43.3%
same,"ITJ 50% reduced, cases",8 weeks,26
same,"ITJ Disappeared, % of cases",8 weeks,3.3%
same,"ITJ Disappeared, cases",8 weeks,2
same,"MR 50% reduced, % of cases",8 weeks,53.3%
same,"MR 50% reduced, cases",8 weeks,32
same,"MR Disappeared, % of cases",8 weeks,21.7%
same,"MR Disappeared, cases",8 weeks,13
same,"NSJ 50% reduced, % of cases",8 weeks,55.0%
same,"NSJ 50% reduced, cases",8 weeks,33
same,"NSJ Disappeared, % of cases",8 weeks,20.0%
same,"NSJ Disappeared, cases",8 weeks,12
same,"RF 2 dilutions lower, % of cases",8 weeks,36.7%
same,"RF 2 dilutions lower, cases",8 weeks,22
same,"RF Reduced to norm., cases",8 weeks,0
same,"AGS 50% increased, % of cases",12 weeks,15.0%
same,"AGS 50% increased, cases",12 weeks,9
same,"CRP 50% reduced, % of cases",12 weeks,33.3%
same,"CRP 50% reduced, cases",12 weeks,20
same,"CRP Reduced to Norm., % of cases",12 weeks,8.3%
same,"CRP Reduced to Norm., cases",12 weeks,5
same,"ESR 50% reduced, % of cases",12 weeks,51.7%
same,"ESR 50% reduced, cases",12 weeks,31
same,"ESR Reduced to norm., % of cases",12 weeks,33.3%
same,"ESR Reduced to norm., cases",12 weeks,20
same,"ITJ 50% reduced, % of cases",12 weeks,51.7%
same,"ITJ 50% reduced, cases",12 weeks,31
same,"ITJ Disappeared, % of cases",12 weeks,15.0%
same,"ITJ Disappeared, cases",12 weeks,9
same,"MR 50% reduced, % of cases",12 weeks,60.0%
same,"MR 50% reduced, cases",12 weeks,36
same,"MR Disappeared, % of cases",12 weeks,25.0%

# Reference: patent US20030232102A1, “Total glycosides of paeony, method to prepare the same and uses thereof” (priority 2001, published 2003)
